Active and inactive are the calls of the source.
Key:
[1] = microbe, parasite or virus in culture; assay type: functional; conditions: Mycobacterium tuberculosis
cells = assay type: functional
[2] = biological target: FAD-linked sulfhydryl oxidase ALR (Homo sapiens, UniProt P55789); test: ALR-catalysed DTT oxidation blockers – biochemical, H2O2 detection, luminescence, cherry-pick, dose response (AID 493248)
[3] = biological target: T1, Ubiquitin-conjugating enzyme E2 N (Homo sapiens, UniProt P61088); assay type: functional;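 also: Dose-response confirmation in a TR-FRET assay detecting UBC13-driven polyubiquitin chain formation, inhibition measured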
T1 sequence (P61088 whole entry): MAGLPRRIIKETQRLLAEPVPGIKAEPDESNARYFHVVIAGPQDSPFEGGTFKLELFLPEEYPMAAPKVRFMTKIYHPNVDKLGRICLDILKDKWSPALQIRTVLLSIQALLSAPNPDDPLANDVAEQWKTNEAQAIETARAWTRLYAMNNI

[4] = biological target: T2, RNA-binding protein pos-1 (Caenorhabditis elegans, UniProt G5EF15); test: disruptors of C. elegans POS-1 RNA interaction – biochemical, fluorescence polarization, dose response (AID 1964);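 also: purified POS-1 fused to maltose binding protein made in E. coli; potency of compounds blocking POS-1 binding to fluorescent RNA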
T2 sequence (G5EF15 whole entry): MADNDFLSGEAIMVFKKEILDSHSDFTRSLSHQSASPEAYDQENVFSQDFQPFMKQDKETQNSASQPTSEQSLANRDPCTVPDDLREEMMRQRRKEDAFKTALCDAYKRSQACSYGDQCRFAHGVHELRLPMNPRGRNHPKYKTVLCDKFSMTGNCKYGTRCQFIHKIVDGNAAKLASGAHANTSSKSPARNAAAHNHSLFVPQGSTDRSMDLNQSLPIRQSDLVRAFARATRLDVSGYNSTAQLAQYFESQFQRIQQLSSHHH

[5] = biological target: T3, Zinc finger protein mex-5 (Caenorhabditis elegans, UniProt Q9XUB2); test: potency of MEX-5 RNA-binding blockers – biochemical, C. elegans, fluorescence polarization, dose response (AID 1960)
T3 sequence (Q9XUB2 whole entry): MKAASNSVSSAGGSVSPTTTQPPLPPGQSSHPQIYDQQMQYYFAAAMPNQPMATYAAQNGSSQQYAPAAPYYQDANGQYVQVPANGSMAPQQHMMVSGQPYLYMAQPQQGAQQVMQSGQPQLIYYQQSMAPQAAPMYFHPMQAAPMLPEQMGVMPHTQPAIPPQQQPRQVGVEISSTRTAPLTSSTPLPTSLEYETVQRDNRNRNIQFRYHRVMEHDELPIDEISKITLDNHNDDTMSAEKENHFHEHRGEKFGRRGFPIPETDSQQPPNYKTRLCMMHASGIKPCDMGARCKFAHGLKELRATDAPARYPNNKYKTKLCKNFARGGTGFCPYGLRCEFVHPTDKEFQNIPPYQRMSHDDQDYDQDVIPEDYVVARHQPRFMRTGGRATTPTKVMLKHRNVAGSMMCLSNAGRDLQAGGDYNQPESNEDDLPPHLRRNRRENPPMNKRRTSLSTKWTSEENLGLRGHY

[6] = biological target: T4, Replicative DNA helicase DnaB (Mycobacterium tuberculosis, UniProt P9WMR3); test: DnaB intein splicing inhibitors, dose response, biochemical, cell-free fluorescence (AID 449749); assay type: functional
T4 sequence (P9WMR3 whole entry): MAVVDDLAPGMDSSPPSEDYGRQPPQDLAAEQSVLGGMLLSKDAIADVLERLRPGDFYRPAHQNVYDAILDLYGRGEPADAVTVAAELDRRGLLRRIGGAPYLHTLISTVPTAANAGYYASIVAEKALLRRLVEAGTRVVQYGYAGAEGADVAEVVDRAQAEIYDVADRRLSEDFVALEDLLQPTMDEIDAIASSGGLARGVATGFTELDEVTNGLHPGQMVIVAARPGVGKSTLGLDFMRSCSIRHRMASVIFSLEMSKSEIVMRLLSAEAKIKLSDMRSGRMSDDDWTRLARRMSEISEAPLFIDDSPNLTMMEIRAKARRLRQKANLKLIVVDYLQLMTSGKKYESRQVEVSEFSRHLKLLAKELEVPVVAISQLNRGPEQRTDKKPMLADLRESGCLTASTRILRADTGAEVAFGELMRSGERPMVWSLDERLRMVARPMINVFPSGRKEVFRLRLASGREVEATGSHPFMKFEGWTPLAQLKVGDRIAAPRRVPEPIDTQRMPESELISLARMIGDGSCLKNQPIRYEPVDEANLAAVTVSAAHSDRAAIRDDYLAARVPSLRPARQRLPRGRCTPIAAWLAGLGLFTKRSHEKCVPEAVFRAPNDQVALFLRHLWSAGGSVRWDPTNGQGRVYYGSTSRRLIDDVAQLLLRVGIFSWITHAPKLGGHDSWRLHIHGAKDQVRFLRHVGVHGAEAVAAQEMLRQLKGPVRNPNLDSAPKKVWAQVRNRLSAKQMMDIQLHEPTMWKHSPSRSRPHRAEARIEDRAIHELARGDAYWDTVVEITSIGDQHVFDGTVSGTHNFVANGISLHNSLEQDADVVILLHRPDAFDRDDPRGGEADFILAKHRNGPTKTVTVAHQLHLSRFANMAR

Protein RecA = biological target: T5, Protein RecA (Mycobacterium tuberculosis, UniProt P9WHJ3); test: Fluorescence Cell-Free Homogeneous Dose Retest to Identify Inhibitors of RecA-Intein Splicing Activity. [Related pubchem assays (depositor defined):AID2097, AID2223, AID489010, AID492950]; assay type: functional
T5 sequence (P9WHJ3 whole entry): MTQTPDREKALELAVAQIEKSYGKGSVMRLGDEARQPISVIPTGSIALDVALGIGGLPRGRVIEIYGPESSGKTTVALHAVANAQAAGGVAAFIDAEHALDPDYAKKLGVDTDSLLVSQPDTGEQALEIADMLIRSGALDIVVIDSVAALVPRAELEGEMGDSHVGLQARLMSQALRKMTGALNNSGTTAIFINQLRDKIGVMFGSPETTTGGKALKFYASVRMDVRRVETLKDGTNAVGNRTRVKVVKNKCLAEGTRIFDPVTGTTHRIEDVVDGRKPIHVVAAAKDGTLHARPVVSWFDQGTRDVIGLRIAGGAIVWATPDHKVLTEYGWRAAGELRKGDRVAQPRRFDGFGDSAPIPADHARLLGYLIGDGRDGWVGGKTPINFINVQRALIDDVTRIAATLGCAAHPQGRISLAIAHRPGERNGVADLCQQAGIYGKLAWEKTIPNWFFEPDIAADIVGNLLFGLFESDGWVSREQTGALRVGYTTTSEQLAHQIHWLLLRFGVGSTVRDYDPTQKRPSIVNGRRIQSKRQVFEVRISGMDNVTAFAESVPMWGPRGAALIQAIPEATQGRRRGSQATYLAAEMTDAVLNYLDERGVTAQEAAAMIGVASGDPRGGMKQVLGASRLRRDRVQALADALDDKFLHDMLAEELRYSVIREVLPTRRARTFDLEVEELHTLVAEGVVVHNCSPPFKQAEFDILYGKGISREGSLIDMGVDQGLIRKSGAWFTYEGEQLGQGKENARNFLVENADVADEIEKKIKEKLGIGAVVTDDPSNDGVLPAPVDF

[7] = reduction of Shn3 3'UTR-driven luciferase in osteoblasts – cell-based, Clone20 osteoblasts, firefly luciferase, cherry-picked, dose response (AID 624132); assay type: functional;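 also: firefly luciferase luminescence from reporter carrying the Shn3 3'UTR in osteoblasts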
[8] = non-specific 3'UTR reporter inhibition in Clone20-Shn3RL – cell-based, Renilla luciferase, cherry-picked, counter-screen for Shn3 inhibitor project, dose response (AID 624133); assay type: functional
[9] = biological target: T6, Heat shock factor protein 1 (Mus musculus, UniProt P38532); test: enhancement of HSF1-driven luciferase signal – cell-based, NIH3T3, luminescence, dose retest, confirmation (AID 435004); assay type: functional;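 also: stress induced by proteasome inhibitor MG132 added 30 min after compound; luciferase reporter driven by HSF1 response element in NIH3T3 cells; actives raise luminescence as potentiators of the MG132 stress response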
T6 sequence (P38532 whole entry): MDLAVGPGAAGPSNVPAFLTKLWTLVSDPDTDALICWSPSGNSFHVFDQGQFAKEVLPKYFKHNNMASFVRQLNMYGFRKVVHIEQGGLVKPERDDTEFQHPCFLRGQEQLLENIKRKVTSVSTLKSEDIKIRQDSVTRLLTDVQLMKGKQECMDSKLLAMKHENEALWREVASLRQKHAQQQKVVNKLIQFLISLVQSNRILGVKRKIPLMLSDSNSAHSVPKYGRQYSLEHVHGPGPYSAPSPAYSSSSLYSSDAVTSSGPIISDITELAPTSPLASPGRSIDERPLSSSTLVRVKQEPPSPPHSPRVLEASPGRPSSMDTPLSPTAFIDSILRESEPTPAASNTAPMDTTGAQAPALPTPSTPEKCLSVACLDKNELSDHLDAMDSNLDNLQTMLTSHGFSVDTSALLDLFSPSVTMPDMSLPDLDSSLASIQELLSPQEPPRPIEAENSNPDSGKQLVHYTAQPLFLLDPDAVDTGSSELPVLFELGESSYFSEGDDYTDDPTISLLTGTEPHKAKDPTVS

[10] = Trypanosoma cruzi growth suppression in host cells – NIH3T3 host cells, beta-gal luminescence, confirmation (AID 2044); assay type: functional, cell-based;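 also: intracellular parasites grown in NIH/3T3 mouse fibroblasts as host cells; luminescent beta-galactosidase reporter signal from transgenic T. cruzi replicating inside host cells; inhibitors lower the luminescence signal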
[11] = NIH3T3 cell viability loss – ATP luminescence, mouse fibroblasts, counter-screen, dose response (AID 2010); assay type: functional, cell-based;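 also: cells exposed to compound for about 90 hours before reading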
[12] = viability of uninfected HEp-2 cells – cell-based, HTS, cytotoxicity control for RSV inhibitor project, dose response (AID 2410); assay type: functional; conditions: human respiratory syncytial virus
[13] = blockers of bursicon-stimulated LGR2 cAMP reporter – cell-based, HEK293, CRE-luciferase reporter, cherry pick, set 2, dose response (AID 743343); assay type: functional;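 also: transfected cells were stimulated with diluted bursicon conditioned medium after compound addition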
[14] = blockade of melanocortin 4 receptor signaling – cell-based, plate reader, cherry pick, counter-screen for LGR2 antagonist project, dose response (AID 743444); assay type: functional;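 also: transfected HEK 293 cells stimulated with alpha-MSH peptide; potency of inhibitors of the alpha-MSH evoked signal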

Chain of FAD-linked sulfhydryl oxidase ALR (P55789 whole entry): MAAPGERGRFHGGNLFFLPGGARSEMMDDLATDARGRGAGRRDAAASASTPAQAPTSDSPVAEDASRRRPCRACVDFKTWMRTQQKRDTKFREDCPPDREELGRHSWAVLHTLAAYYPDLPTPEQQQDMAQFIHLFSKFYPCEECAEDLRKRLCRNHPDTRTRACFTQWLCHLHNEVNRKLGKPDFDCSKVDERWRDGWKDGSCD

CCOc1ccc(OCCSc2ccc(S(=O)(=O)N3CCN(C)CC3)cn2)cc1
CC50 [1]: > 40 µM (active)
IC50 (cells): 19.3 µM (active)

Cc1cccc(N2CC(C(=O)Nc3ccccc3N3CCCC3)CC2=O)c1C (stereo not given)
AC50 [2]: 1.93 µM (active)

CCCCOc1ccc(C(=O)NNC(=O)c2cnccn2)cc1OC
IC50 [3]: > 20 µM (inactive)

CCOc1cc(C(c2c(C)[nH][nH]c2=O)c2c(C)[nH][nH]c2=O)cc([N+](=O)[O-])c1O
EC50 [4]: 16.3 µM (active)
EC50 [5]: 2.07 µM (active)
AC50 [6]: 0.299 µM (active)
EC50 (Protein RecA): 0.219 µM (active)

CN(C)c1ncnc2c1C(c1ccccc1)C(C)(C)O2 (stereo not given)
AC50 [7]: > 70 µM (inactive)

COC(=O)c1ccc(N2CCN(S(=O)(=O)c3ccc(C)cc3)CC2)c([N+](=O)[O-])c1
AC50 [7]: 3.88 µM (active)
AC50 [8]: 2.95 µM (active)

C=CCn1c(S)nnc1-c1cc(-c2ccccc2)sc1N
EC50 [9]: > 260 µM (inactive)
AC50 [2]: < 0.005 µM (active)

O=C(Nc1ccc(Br)cc1)c1cc([N+](=O)[O-])cc([N+](=O)[O-])c1
EC50 [10]: 0.19 µM (active)
EC50 [11]: > 60 µM (not active)
IC50 (cells): 11.4 µM (active)

O=C(CCS(=O)(=O)c1ccccc1)Nc1nc2c(s1)CCCC2
CC50 [12]: 18.5 µM (active)
AC50 [8]: 25.2 µM (active)

C[C@@H](CN1C2=NC[C@H](Cc3ccccc3)N2C[C@H]1Cc1ccc(O)cc1)NC(=O)CCC1CCCCC1
IC50 [3]: > 20 µM (inactive)

CC(C)C(=O)NCCSc1c[nH]c2ccccc12
AC50 [2]: 3.12 µM (active)

Cc1ccc(-n2c(S)nnc2-c2cnccn2)cc1
AC50 [2]: 6.42 µM (active)

Cc1ccc2nc(-c3ccc(NC(=O)COC(=O)c4ccco4)cc3)sc2c1
CC50 [12]: 14.1 µM (active)
AC50 [13]: 2.95 µM (active)
AC50 [14]: 3.55 µM (active)

Cc1nn2c(nc(N3CCOCC3)c3ccccc32)c1C=C(C#N)C#N
IC50 [3]: > 20 µM (inactive)
